Assay results taken from US12133843B2, “IL-8 inhibitors for use in the treatment and/or prevention of bacterial secondary infections” (priority 2017, dated 2024).

Legend:
[1] = tested on: H1N1 influenza virus plus cigarette smoke; test: Lung inflammation exacerbation model combining H1N1 influenza infection and cigarette smoke exposure (Cs-H1N1); type: in vivo, female C57BL/6 mice; details: survival assay, once a day for 7 days from day of infection
Description: Viral infections are among the principal causes of COPD exacerbations (Mackay, A. J. & Hurst, J. R. Immunol Allergy Clin North Am 33, 95-115; 2013). For that reason, the inventors combined influenza infection and cigarette smoke exposure (Cs) in mice in order to model COPD exacerbation. The inventors essentially exposed female C57BL/6 mice to Cs for 12 days and infect them with 1000 pfu of H1N1 influenza virus at day 7 after starting daily Cs exposure (Cs-H1N1).

[2] = tested on: Influenza A/WSN/33 H1N1 (IAV); test: Single IAV infection in mice, treatment with CXCR1/CXCR2 antagonist; type: in vivo, C57BL/6J mice; details: 10^4 PFU IAV
[3] = tested on: Streptococcus pneumoniae (ATCC 6303 serotype 3); test: Single pneumococcal infection (pneumonia) in mice; type: in vivo, C57BL/6J mice; details: S. pneumoniae i.n.
[4] = in vivo; cited from earlier work
neutrophil influx = details: this dose and schedule (10 mg/kg oral gavage); cited from earlier work
[5] = tested on: S. pneumoniae secondary infection after IAV; type: in vivo, C57BL/6J mice
[6] = 10 mg/kg twice a day for 5 days, day 5, BAL
[7] = 10 mg/kg twice a day for 5 days, day 5, BAL fluid ELISA
[8] = 10 mg/kg at 6, 12, 24, 36 h, 48 h after infection, BALF

Question: Which results are given for `C[C@@H](C(=O)NS(C)(=O)=O)c1ccc(OS(=O)(=O)C(F)(F)F)cc1` [DF2156A]?
Answer: Mortality rate ([1]; Cs-H1N1 mice, LD50 of influenza virus): slightly reduced; Mice mortality, delay (survival curve vs Cs-H1N1 group) [1]: significantly delayed

Question: Which “Weight loss (morbidity)” value ([2]; 10 mg/kg oral gavage twice a day, day 0 to 5, vs vehicle) does the source give for `C[C@@H](C(N)=O)c1ccc(OS(=O)(=O)C(F)(F)F)cc1` [DF2162, R(−)-2-[(4′-trifluoromethanesulfonyloxy)phenyl]propionamide] here?
Answer: reduction of weight loss

Question: And the “Histological analysis of lungs: bronchiolar and vascular inflammation” value ([2]; 10 mg/kg twice a day for 5 days, H&E slides)?
Answer: reduced bronchiolar and vascular inflammation

Question: And the “Levels of MPO in the lungs” value ([2]; 10 mg/kg twice a day for 5 days, day 5)?
Answer: did not reduce

Question: What about the “Neutrophils in the airways” value [2, 6] of the same molecule?
Answer: decreased

Question: What about the “Number of leukocytes recruited into the airways” value [2, 6] of the same molecule?
Answer: decreased

Question: And the “Levels of CXCL1 in the airways” value [2, 7]?
Answer: decreased

Question: What about the “Levels of IL-6 in the airways” value [2, 7] of the same molecule?
Answer: did not reduce

Question: And the “Levels of TNF-α in the airways” value [2, 7]?
Answer: decreased

Question: And the “Viral loads in the lungs” value ([2]; 10 mg/kg twice a day for 5 days, day 5, plaque assay, vs vehicle)?
Answer: reduced

Question: And the “Lung injury (histopathological score)” value ([2]; 10 mg/kg twice a day for 5 days, day 5, score max 18 points)?
Answer: reduced the lung injury

Question: What about the “Lung injury (overall pathological score)” value ([3]; 10 mg/kg at 6, 12, 24, 36 h, 48 h, score max 18 points) of the same molecule?
Answer: reduced the lung injury

Question: What about the “Neutrophils in the lungs” value ([3]; 10 mg/kg at 6, 12, 24, 36 h, 48 h after infection) of the same molecule?
Answer: reduction in neutrophils

Question: What about the “Neutrophils recruited into the airways” value [3, 8] of the same molecule?
Answer: decreased

Question: What about the “Number of leukocytes recruited into the airways” value [3, 8] of the same molecule?
Answer: decreased number of leukocytes

Question: And the Lethality ([3]; 10 mg/kg twice a day for 2 days, followed 10 days)?
Answer: protected mice from lethality

Question: And the Half-life [4]?
Answer: long half-life

Question: And the “Neutrophil influx in other models” value (neutrophil influx)?
Answer: significant inhibition of neutrophil influx

Question: And the “Levels of IL-10 in BAL fluid” value ([5]; mouse, in vivo)?
Answer: decreased

Question: And the “Mortality after secondary infection” value ([5]; mouse, in vivo, 10 mg/kg)?
Answer: delayed mortality

Question: And the Weight loss ([5]; mouse, in vivo, 10 mg/kg)?
Answer: reduced the weight loss

Question: What about the “Histopathological lung damage (overall score of lung injury)” value ([5]; treated days 3-6 of IAV, […]) of the same molecule?
Answer: decreased such histopathological lung damage

Question: And the “Levels of CXCL-1 in BAL fluid” value ([5]; treated days 3-6 of IAV, […])?
Answer: prevented the increase

Question: What about the “Levels of IL-6 in BAL fluid” value ([5]; treated days 3-6 of IAV, […]) of the same molecule?
Answer: prevented the increase

Question: And the “Levels of IL-12 in BAL fluid” value ([5]; treated days 3-6 of IAV, […])?
Answer: prevented the increase

Question: And the “Levels of TNF-α in BAL fluid” value ([5]; treated days 3-6 of IAV, […])?
Answer: prevented the increase

Question: And the “Number of bacteria in the blood” value ([5]; treated days 3-6 of IAV, […])?
Answer: reduction in number of bacteria

Question: And the “Recruitment of neutrophils into the lungs (MPO assay)” value ([5]; treated days 3-6 of IAV, […])?
Answer: decreased recruitment of neutrophils

Question: What about the “Recruitment of neutrophils into the airways” value ([5]; treated days 3-6 of IAV, […], BAL) of the same molecule?
Answer: decreased recruitment of neutrophils

Question: What about the “Levels of protein in BALF (protein leakage)” value ([5]; treated days 3-6 of IAV, […], Bradford assay) of the same molecule?
Answer: decreased the levels of protein in BALF

Question: With `C[N+]1(C)[C@@H]2C[C@@H](OC(=O)C(O)(c3cccs3)c3cccs3)C[C@H]1[C@@H]1O[C@@H]12` [Tiotropium, reference compound] as the molecule, how does the “Mice mortality, delay (survival curve vs Cs-H1N1 group)” value [1] read?
Answer: no significant differences
